Results reported in patent US20230012560A1, “HEPATITIS B ANTIVIRAL AGENTS” (TAIGEN BIOTECHNOLOGY CO., LTD., priority 2019, published 2023).

The compounds below were run on HBV (HepAD38 cells) (assay: Real-Time PCR Assay (extracellular HBV DNA from HepAD38 culture supernatants)). Settings: Hepatitis B virus, 120 h, compound treatment for 5 days without tetracycline, extracellular DNA in culture supernatant quantified by real-time PCR, read-out: EC50 (50% effective concentration).
Assay type: cell-based
Procedure: HepAD38 cells were seeded and cultured on 96-well plates. After incubation for 2 days, cells were fed with compound-containing media without tetracycline. After compound treatment for 5 days, culture supernatants were collected. Extracellular DNA was then extracted using LabTurbo DNA mini kit, and quantified by real-time PCR.
Real-time PCR was performed using an ABI QuantStudio 3 system in a 96-well optical plate format. The PCR mixture containing forward primer (5′-[…]-3′) (SEQ ID NO.1), reverse primer (5′-GGTGAGTGATTGGAGGTTG-3′) (SEQ ID NO.2) and Luna Universal qPCR Master Mix in a final volume of 24 μl was incubated at 95° C. for 10 min followed by 45 cycle of incubation at 95° C. for 10 s and 60° C. for 10 s. Regression analysis was performed using GraphPad Prism 5 to calculate the 50% effective concentration (EC50) values.

Q: With `C[C@@H](NC(=O)C(=O)N1CC[C@@H](NS(=O)(=O)c2cn(C)c(C(=O)Nc3cc(F)c(F)c(F)c3)c2F)C1)C(F)(F)F` [Compound 39] as the compound, how does the EC50 read?
A: The EC50 was < 100 nM.

Q: `CC(C)NC(=O)C(=O)N1CC[C@@H](NS(=O)(=O)c2cn(C)c(C(=O)Nc3cc(F)c(F)c(F)c3)c2F)[C@@H](C)C1` [Compound 97] was tested. Which EC50 did it give?
A: The EC50 was < 100 nM.

Q: For `Cn1cc(S(=O)(=O)NC2CCN(S(=O)(=O)C3(C)CC3)CC2)c(F)c1C(=O)Nc1ccc(F)c(F)c1` [Compound 24], which EC50 is on record?
A: The EC50 was < 100 nM.

Q: How did the EC50 turn out when `CNC(=O)C(=O)N1C[C@@H]2[C@H](C1)[C@@H]2NS(=O)(=O)c1cn(C)c(C(=O)Nc2cc(F)c(F)c(F)c2)c1F` [Compound 100] was run?
A: The EC50 was < 100 nM.

Q: `CCn1cc(S(=O)(=O)N[C@@H]2CCCN(S(=O)(=O)NC)C2)c(F)c1C(=O)Nc1ccc(F)c(F)c1` [Compound 22] was tested. Which EC50 did it give?
A: The EC50 was < 100 nM.

Q: `CCNC(=O)C(=O)N[C@@H]1CCN(S(=O)(=O)c2cn(C)c(C(=O)Nc3cc(F)c(F)c(F)c3)c2F)C1` [Compound 61] was tested. Which EC50 did it give?
A: Its EC50 is 300 to 1000 nM.

Q: Which EC50 does the source give for `Cn1cc(S(=O)(=O)NC2CCN(C(=O)C(=O)NC3(C)CC3)CC2(F)F)c(Cl)c1C(=O)Nc1cc(F)c(F)c(F)c1` (centres unmarked) [Compound 93] here?
A: The EC50 was < 100 nM.

Q: With `CCNC(=O)C(=O)N1CC[C@@H](NS(=O)(=O)c2cn(C)c(C(=O)Nc3ccc(F)c(F)c3)c2F)C(C)(C)C1` [Compound 99] as the compound, how does the EC50 read?
A: The EC50 was < 100 nM.

Q: For `CCNC(=O)C(=O)N1CC[C@@H](NS(=O)(=O)c2c(F)c(C(=O)Nc3cc(F)c(F)c(F)c3)n3c2CCC3)C1` [Compound 45], which EC50 is on record?
A: The EC50 was < 100 nM.

Q: How did the EC50 turn out when `CCS(=O)(=O)N1CCC2(NS(=O)(=O)c3cn(C)c(C(=O)Nc4ccc(F)c(F)c4)c3F)CC2C1` (centres unmarked) [Compound 26] was run?
A: The EC50 was < 100 nM.

Q: With `CCCn1cc(S(=O)(=O)N[C@@H]2CCN(C(=O)C(=O)NC)C2)c(F)c1C(=O)Nc1ccc(F)c(F)c1` [Compound 51] as the compound, how does the EC50 read?
A: Its EC50 is < 100 nM.

Q: With `CCNC(=O)C(=O)N1CC[C@@H](NS(=O)(=O)c2cn(C)c(C(=O)Nc3ccc(F)c(F)c3)c2F)C(F)(F)C1` [Compound 94] as the compound, how does the EC50 read?
A: The EC50 was < 100 nM.

Q: For `CNS(=O)(=O)NC1CCN(S(=O)(=O)c2cn(C)c(C(=O)Nc3cc(F)c(F)c(F)c3)c2F)CC1` [Compound 62], which EC50 is on record?
A: Its EC50 is 300 to 1000 nM.

Q: Which EC50 does the source give for `CCNC(=O)C(=O)N1CC(C)C(NS(=O)(=O)c2cn(C)c(C(=O)Nc3cc(F)c(F)c(F)c3)c2F)C1` (centres unmarked) [Compound 54] here?
A: The EC50 was < 100 nM.

Q: How did the EC50 turn out when `CCNC(=O)C(=O)NC1CCN(S(=O)(=O)c2cn(C)c(C(=O)Nc3cc(F)c(F)c(F)c3)c2F)CC1` [Compound 63] was run?
A: The EC50 was 100 to 300 nM.

Q: Which EC50 does the source give for `CNC(=O)C(=O)N1CC[C@@H](NS(=O)(=O)c2c(F)c(C(=O)Nc3cc(F)c(F)c(F)c3)n(C)c2Cl)C1` [Compound 43] here?
A: Its EC50 is < 100 nM.

Q: Which EC50 does the source give for `Cn1cc(S(=O)(=O)N[C@@H]2CCN(S(=O)(=O)/C=C/c3ccccc3)C2)c(F)c1C(=O)Nc1ccc(F)c(F)c1` [Compound 14] here?
A: The EC50 was 100 to 300 nM.

Q: With `CNC(=O)C(=O)N1CC[C@@H](NS(=O)(=O)c2c(F)c(C(=O)Nc3cc(F)c(F)c(F)c3)n3c2CCCC3)C1` [Compound 46] as the compound, how does the EC50 read?
A: The EC50 was 100 to 300 nM.

Q: Which EC50 does the source give for `Cn1cc(S(=O)(=O)N[C@@H]2CCN(S(=O)(=O)C3(C)CC3)C2)c(F)c1C(=O)Nc1ccc(F)c(F)c1` [Compound 2] here?
A: The EC50 was < 100 nM.

Q: For `COCCS(=O)(=O)N1CC[C@@H](NS(=O)(=O)c2cn(C)c(C(=O)Nc3ccc(F)c(F)c3)c2F)C1` [Compound 4], which EC50 is on record?
A: The EC50 was < 100 nM.

Q: For `CCNC(=O)C(=O)N1CCC(NS(=O)(=O)c2c(Cl)c(C(=O)Nc3cc(F)c(F)c(F)c3)n3c2CCC3)CC1` [Compound 78], which EC50 is on record?
A: The EC50 was < 100 nM.

Q: For `CNC(=O)C(=O)N1CC[C@@H](NS(=O)(=O)c2cn(CC(F)F)c(C(=O)Nc3ccc(F)c(F)c3)c2F)C1` [Compound 48], which EC50 is on record?
A: The EC50 was < 100 nM.

Q: For `CCNC(=O)C(=O)N1CCC(NS(=O)(=O)c2cn(C)c(C(=O)Nc3cc(F)c(F)c(F)c3)c2Cl)CC1C` (centres unmarked) [Compound 84], which EC50 is on record?
A: The EC50 was < 100 nM.

Q: With `CCNC(=O)C(=O)N1CCC(NS(=O)(=O)c2cn(C)c(C(=O)Nc3ccc(F)c(C)c3)c2F)CC1` [Compound 71] as the compound, how does the EC50 read?
A: The EC50 was < 100 nM.

Q: With `Cn1cc(S(=O)(=O)NC2CCN(C(=O)C(=O)NC3COC3)CC2(F)F)c(F)c1C(=O)Nc1ccc(F)c(F)c1` (centres unmarked) [Compound 92] as the compound, how does the EC50 read?
A: The EC50 was < 100 nM.

Q: For `CNC(=O)C(=O)N1CC[C@@H](NS(=O)(=O)c2cn(C3CC3)c(C(=O)Nc3ccc(F)c(F)c3)c2F)C1` [Compound 49], which EC50 is on record?
A: Its EC50 is < 100 nM.
